Key:
osteoblast-like cells [1] = assay: Alkaline phosphatase activity (early-stage osteoblastic differentiation); format: cell-based, human; settings: 0.0194% (=10^-4M) compared with 3% and control; seventh day; FIG. 2
Protocol: Method of Measuring Cell Culture and Alkaline Phosphatase Activities
In vitro tests were performed by using osteoblast-like cells through a human primary cell culture. A cell survival environment was progressed by supplementing DMEM (Dulbecco Modified Eagle's Medium)-high glucose (PAA Laboratories, Pasching, Austria) and 20% fetal bovine serum (PAA, Canada) and comprising 1% penicillin/streptomycin (100×), and media were exchanged every other day. Resulting materials were confirmed on the seventh day of differentiation experiments by using alkaline phosphatase (Sigma, St. Louis, Mo., USA).

ALP, Runx2, Osx, Ocn = assay: mRNA expression of osteoblast differentiation markers; format: cell-based; settings: 0.0194% (=10^-4M) compared with 3% or control; FIGS. 4A to 4D
ALP and Runx2 = assay: Western blot protein level; format: cell-based; settings: 0.0194% compared with 3% or control; FIG. 5
osteoclasts = assay: Differentiation of osteoclasts (TRAP staining); format: cell-based, human; settings: FIGS. 6A and 6B
Protocol: Method of Measuring Differentiation Abilities of Osteoclasts (TRAP Staining)
In vitro tests were performed by using osteoclasts through a human bone marrow derived macrophages culture. A cell survival environment was progressed by supplementing DMEM (Dulbecco Modified Eagle's Medium)-high glucose (PAA Laboratories, Pasching, Austria) and 20% fetal bovine serum (PAA, Canada) and comprising 1% penicillin/streptomycin (100×), and media were exchanged once a day. Resulting materials were confirmed on the fifth day of differentiation experiments through TRAP staining.

human primary cells = assay: MTS measuring of cytotoxicity and cell viability; format: cell-based; settings: FIG. 1
Source text: MTS Measuring Method of Cytotoxicity and Cell Viability
Mitochondrial NADH-dehydrogenase forms formazan having a color by reducing a tetrazolium salt such as MTS. Therefore, as the number of cells which express dehydrogenase, i.e., living cells is proportional to formation of formazan, the living cells can be quantified.
After seeding human primary cells, adhering the seeded-human primary cells to a cell plate, and treating the seeded-human primary cells adhered to the cell plate with an MTS Cell Proliferation Assay Kit (ab197010, UK, abcam) every 24 hours and 48 hours, resulting materials were confirmed by using a wavelength of 490 nm.

osteoblast-like cells [2] = assay: Alizarin Red S staining (late osteoblast differentiation, calcium accumulation); format: cell-based, human; settings: 0.0194% (=10^-4M) compared with 3% and control; FIG. 3
Protocol: Method of Measuring Bone Differentiation Degrees by Dyeing Calcium Accumulation of Bone-Differentiated Cells (Alizarin Red S Staining)
In vitro tests were performed by using osteoblast-like cells through a human primary cell culture. A cell survival environment was progressed by supplementing DMEM (Dulbecco Modified Eagle's Medium)-high glucose (PAA Laboratories, Pasching, Austria) and 20% fetal bovine serum (PAA, Canada) and comprising 1% penicillin/streptomycin (100×), and media were exchanged every other day. Resulting materials were confirmed on the seventh day of differentiation experiments.

## CCCCCCc1ccc(O)cc1O [4-hexylresorcinol]
osteoblast-like cells [1]
  ALP activity: high ALP activity
ALP, Runx2, Osx, Ocn
  mRNA expression level of ALP, Runx2, Osx, Ocn: larger expression level
ALP and Runx2
  ALP and Runx2 protein expression levels (western blot): higher
osteoclasts; 0.0194% compared with 3%
  effect on differentiation of osteoclasts, low versus high concentration: more excellent
osteoclasts; treating 4-hexylresorcinol, fifth day
  differentiation of osteoclasts: inhibited
Human primary cells; 0.0194% compared with 3%
  cell proliferation, low versus high concentration: cell proliferation is more active
Human primary cells; 4-hexylresorcinol concentrations of 3% and 0.0194% (=10^-4M)
  cell viabilities versus control: higher than a control
osteoblast-like cells [2]
  calcification (Alizarin Red S staining): high calcification
